Patent US20110230481A2, “DERIVATIVES OF TETRABROMOBENZIMIDAZOLE, A PROCESS FOR THE PREPARATION THEREOF, A PHARMACEUTICAL COMPOSITION COMPRISING THE SAME, A METHOD OF USING THE SAME, A METHOD FOR MODULATING OR REGULATING SERINE/THREONINE KINASES, AND SERINE/THREONINE KINASES MODULATING AGENT” (SELVITA S.A., priority 2009, published 2011)

Experiments:
Experiment in all cases: KINOMEscan Max
Type in all cases: binding
[1] = molecular target: T1, RSK1(Kin.Dom.1-N-terminal) (Homo sapiens, UniProt Q15418)
T1 construct: RSK1(Kin.Dom.1-N-terminal); DNA tag (qPCR read-out)
Method in brief: (§1)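 Binding was measured by competition: compounds were tested for their ability to displace DNA-tagged kinases from an immobilized ligand directed at the active site, with quantitative PCR of the tag as read-out.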

MARK1 = molecular target: T2, MARK1 (Homo sapiens, UniProt Q9P0L2)
T2 construct: purchased Ambit Kinomescan (contract panel)
Method in brief: as §1

FLT3(D835Y) = molecular target: T3, FLT3(D835Y) (Homo sapiens, UniProt P36888, D835Y)
T3 construct: DNA tag (qPCR read-out); purchased Ambit Kinomescan
Method in brief: as §1

JNK1 = molecular target: T4, JNK1 (Homo sapiens, UniProt P45983); conditions: 1 μM
T4 construct: purchased Ambit Kinomescan (contract panel)
Method in brief: as §1

TAOK1 = molecular target: T5, TAOK1 (Homo sapiens, UniProt Q7L7X3)
T5 construct: DNA tag (qPCR read-out)
Method in brief: as §1

JNK3 = molecular target: T6, JNK3 (Homo sapiens, UniProt P53779); conditions: 1 μM
T6 construct: purchased Ambit Kinomescan (contract panel)
Method in brief: as §1

CDK7 = molecular target: T7, CDK7 (Homo sapiens, UniProt P50613)
T7 construct: DNA tag (qPCR read-out)
Method in brief: as §1

RET = molecular target: T8, RET (Homo sapiens, UniProt P07949)
T8 construct: DNA tag (qPCR read-out)
Method in brief: as §1

PRKG2 = molecular target: T9, PRKG2 (Homo sapiens, UniProt Q13237)
T9 construct: DNA tag (qPCR read-out); purchased Ambit Kinomescan
Method in brief: as §1

HUNK = molecular target: T10, HUNK (Homo sapiens, UniProt P57058)
T10 construct: purchased Ambit Kinomescan (contract panel, KINOMEscan Max)
Method in brief: as §1

ROS1 = molecular target: T11, ROS1 (Homo sapiens, UniProt P08922)
T11 construct: DNA tag (qPCR read-out)
Method in brief: as §1

TSSK1B = molecular target: T12, TSSK1B (Homo sapiens, UniProt Q9BXA7)
T12 construct: purchased Ambit Kinomescan (contract screening service)
Method in brief: as §1

p38-alpha = p38-alpha (Homo sapiens, UniProt Q16539); conditions: 1 μM
Method in brief: as §1

ERBB3 = molecular target: T13, ERBB3 (Homo sapiens, UniProt P21860)
T13 construct: purchased Ambit (KINOMEscan Max service)
Method in brief: as §1

FLT4 = FLT4 (Homo sapiens, UniProt P35916)
Method in brief: as §1

PIK3C2B = molecular target: T14, PIK3C2B (Homo sapiens, UniProt O00750)
T14 construct: purchased Ambit Kinomescan (contract screening)
Method in brief: as §1

LIMK1 = LIMK1 (Homo sapiens, UniProt P53667)
Method in brief: as §1

BTK = molecular target: T15, BTK (Homo sapiens, UniProt Q06187); conditions: 1 μM
T15 construct: purchased Ambit (KINOMEscan Max service)
Method in brief: as §1

MAP4K3 = molecular target: T16, MAP4K3 (Homo sapiens, UniProt Q8IVH8); conditions: 1 μM
T16 construct: purchased Ambit (KINOMEscan Max service)
Method in brief: as §1

HIPK2 = molecular target: T17, HIPK2 (Homo sapiens, UniProt Q9H2X6)
T17 construct: DNA tag (qPCR read-out); purchased Ambit Kinomescan
Method in brief: as §1

ERK3 = ERK3 (Homo sapiens, UniProt Q16659)
Method in brief: as §1

PCTK1 = PCTK1 (Homo sapiens, UniProt Q00536)
Method in brief: as §1

[2] = molecular target: T18, ABL1(F317I)-nonphosphorylated (Homo sapiens, UniProt P00519, F317I)
T18 construct: purchased Ambit (KINOMEscan Max service)
Method in brief: as §1

YSK1 = molecular target: T19, YSK1 (Homo sapiens, UniProt O00506)
T19 construct: purchased Ambit Kinomescan (contract screening service)
Method in brief: as §1

[3] = molecular target: ABL1(T315I)-nonphosphorylated (Homo sapiens, UniProt P00519, T315I)
Method in brief: as §1

p38-gamma = p38-gamma (Homo sapiens, UniProt P53778)
Method in brief: as §1

FES = molecular target: T20, FES (Homo sapiens, UniProt P07332)
T20 construct: purchased Ambit Kinomescan (contract panel, KINOMEscan Max)
Method in brief: as §1

ULK3 = molecular target: T21, ULK3 (Homo sapiens, UniProt Q6PHR2); conditions: 1 μM
T21 construct: purchased Ambit Kinomescan (contract screening service)
Method in brief: as §1

TNK1 = molecular target: T22, TNK1 (Homo sapiens, UniProt Q13470)
T22 construct: DNA tag (qPCR read-out)
Method in brief: as §1

EPHA4 = molecular target: T23, EPHA4 (Homo sapiens, UniProt P54764)
T23 construct: purchased Ambit (KINOMEscan Max panel service)
Method in brief: as §1

CSNK1G2 = molecular target: T24, CSNK1G2 (Homo sapiens, UniProt P78368); conditions: 1 μM
T24 construct: purchased Ambit (KINOMEscan Max panel service)
Method in brief: as §1

CDK2 = molecular target: T25, CDK2 (Homo sapiens, UniProt P24941); conditions: 1 μM
T25 construct: purchased Ambit (KINOMEscan Max service)
Method in brief: as §1

DYRK1B = molecular target: T26, DYRK1B (Homo sapiens, UniProt Q9Y463)
T26 construct: DNA tag (qPCR read-out); purchased Ambit Kinomescan
Method in brief: as §1

PAK6 = PAK6 (Homo sapiens, UniProt Q9NQU5)
Method in brief: as §1

T12 sequence (Q9BXA7 whole entry): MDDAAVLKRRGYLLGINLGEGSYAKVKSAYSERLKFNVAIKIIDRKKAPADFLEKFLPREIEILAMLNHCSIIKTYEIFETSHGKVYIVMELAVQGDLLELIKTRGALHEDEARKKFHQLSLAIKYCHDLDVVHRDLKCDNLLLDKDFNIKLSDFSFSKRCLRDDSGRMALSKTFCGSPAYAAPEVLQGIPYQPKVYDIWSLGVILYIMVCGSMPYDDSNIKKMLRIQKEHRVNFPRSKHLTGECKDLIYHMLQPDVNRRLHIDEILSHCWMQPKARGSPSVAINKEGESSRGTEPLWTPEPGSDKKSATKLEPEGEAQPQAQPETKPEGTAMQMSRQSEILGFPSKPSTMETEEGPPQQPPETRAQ
Sequence of LIMK1 (P53667 whole entry): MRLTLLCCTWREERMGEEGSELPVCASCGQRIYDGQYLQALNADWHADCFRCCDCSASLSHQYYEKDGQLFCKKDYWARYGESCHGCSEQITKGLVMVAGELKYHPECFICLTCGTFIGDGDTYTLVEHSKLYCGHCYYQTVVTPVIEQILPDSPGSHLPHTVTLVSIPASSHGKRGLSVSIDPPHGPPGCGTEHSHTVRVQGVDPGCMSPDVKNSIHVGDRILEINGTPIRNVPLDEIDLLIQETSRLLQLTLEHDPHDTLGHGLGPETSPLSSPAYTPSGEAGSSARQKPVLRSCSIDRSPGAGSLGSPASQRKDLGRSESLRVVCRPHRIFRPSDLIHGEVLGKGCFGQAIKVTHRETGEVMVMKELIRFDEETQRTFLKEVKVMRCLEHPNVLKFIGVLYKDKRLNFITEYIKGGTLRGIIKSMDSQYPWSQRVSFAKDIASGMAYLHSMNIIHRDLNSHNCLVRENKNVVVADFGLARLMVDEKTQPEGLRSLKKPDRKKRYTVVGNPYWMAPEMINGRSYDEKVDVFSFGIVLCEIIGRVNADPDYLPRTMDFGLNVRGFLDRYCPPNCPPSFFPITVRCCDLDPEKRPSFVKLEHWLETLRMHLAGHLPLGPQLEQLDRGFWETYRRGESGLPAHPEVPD
T9 sequence (Q13237 whole entry): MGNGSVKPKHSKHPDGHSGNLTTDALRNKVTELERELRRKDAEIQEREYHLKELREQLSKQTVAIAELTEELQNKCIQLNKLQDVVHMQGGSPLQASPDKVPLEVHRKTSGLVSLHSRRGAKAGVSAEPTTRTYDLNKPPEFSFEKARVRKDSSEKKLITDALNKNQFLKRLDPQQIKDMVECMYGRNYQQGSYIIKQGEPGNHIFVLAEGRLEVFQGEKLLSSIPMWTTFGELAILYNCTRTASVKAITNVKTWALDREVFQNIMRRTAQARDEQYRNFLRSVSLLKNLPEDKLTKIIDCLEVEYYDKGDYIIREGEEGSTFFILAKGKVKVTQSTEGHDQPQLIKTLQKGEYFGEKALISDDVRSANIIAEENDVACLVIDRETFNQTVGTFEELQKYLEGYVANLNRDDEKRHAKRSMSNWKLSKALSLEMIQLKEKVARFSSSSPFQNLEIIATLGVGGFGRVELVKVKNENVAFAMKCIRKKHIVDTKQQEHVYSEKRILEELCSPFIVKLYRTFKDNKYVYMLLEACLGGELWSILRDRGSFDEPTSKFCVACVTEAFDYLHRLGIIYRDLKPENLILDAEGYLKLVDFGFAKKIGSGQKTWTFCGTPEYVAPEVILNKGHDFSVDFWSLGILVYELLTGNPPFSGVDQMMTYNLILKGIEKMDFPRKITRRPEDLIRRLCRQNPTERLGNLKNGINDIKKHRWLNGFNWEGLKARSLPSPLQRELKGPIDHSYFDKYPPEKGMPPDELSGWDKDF
T24 sequence (P78368 whole entry): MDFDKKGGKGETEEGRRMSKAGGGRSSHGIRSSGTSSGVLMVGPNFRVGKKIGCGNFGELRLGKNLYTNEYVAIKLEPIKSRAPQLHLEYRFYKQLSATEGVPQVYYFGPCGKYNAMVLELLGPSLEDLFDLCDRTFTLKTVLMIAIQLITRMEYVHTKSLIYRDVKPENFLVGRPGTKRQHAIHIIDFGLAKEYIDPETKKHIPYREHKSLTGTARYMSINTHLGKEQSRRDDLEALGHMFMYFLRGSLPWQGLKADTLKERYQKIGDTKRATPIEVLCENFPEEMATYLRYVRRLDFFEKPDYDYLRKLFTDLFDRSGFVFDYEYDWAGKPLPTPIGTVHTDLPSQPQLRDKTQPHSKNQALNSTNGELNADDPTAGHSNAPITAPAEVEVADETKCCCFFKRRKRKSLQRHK
T23 sequence (P54764 20-986): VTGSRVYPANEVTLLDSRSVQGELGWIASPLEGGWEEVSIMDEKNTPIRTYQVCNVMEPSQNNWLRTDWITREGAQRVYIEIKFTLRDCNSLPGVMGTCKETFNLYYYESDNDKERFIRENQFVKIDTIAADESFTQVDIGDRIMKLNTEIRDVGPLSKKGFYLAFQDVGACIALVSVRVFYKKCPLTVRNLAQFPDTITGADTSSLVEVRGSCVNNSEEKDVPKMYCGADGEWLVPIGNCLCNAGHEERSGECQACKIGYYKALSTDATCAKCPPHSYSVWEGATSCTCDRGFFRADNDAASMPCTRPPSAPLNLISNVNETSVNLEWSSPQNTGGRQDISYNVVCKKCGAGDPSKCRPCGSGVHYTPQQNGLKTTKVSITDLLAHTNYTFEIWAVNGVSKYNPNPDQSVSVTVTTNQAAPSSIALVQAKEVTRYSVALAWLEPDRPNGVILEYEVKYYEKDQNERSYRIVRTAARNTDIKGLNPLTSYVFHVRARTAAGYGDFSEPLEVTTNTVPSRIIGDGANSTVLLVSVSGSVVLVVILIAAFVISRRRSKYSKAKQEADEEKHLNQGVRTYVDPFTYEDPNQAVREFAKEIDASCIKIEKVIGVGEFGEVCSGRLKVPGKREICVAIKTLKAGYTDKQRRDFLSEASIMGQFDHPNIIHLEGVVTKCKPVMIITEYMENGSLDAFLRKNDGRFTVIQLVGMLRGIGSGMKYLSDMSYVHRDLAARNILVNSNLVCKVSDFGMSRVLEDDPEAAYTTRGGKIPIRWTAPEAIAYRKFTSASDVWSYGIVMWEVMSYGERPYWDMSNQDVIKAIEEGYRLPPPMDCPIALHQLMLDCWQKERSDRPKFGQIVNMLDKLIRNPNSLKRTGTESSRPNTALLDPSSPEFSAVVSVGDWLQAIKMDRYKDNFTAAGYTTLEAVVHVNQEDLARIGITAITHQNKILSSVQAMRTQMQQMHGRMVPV
T19 sequence (O00506 whole entry): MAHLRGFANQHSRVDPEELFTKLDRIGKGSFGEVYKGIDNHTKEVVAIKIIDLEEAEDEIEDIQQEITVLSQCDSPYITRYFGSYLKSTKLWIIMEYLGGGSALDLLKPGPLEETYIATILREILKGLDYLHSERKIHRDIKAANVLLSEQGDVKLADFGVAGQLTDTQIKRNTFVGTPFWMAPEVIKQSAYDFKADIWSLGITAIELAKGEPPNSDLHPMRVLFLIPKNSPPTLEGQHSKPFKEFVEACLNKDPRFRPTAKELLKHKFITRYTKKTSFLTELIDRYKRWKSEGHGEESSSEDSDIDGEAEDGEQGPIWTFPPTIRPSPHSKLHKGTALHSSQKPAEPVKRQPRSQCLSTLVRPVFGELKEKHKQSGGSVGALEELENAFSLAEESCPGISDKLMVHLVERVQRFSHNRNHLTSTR
T10 sequence (P57058 whole entry): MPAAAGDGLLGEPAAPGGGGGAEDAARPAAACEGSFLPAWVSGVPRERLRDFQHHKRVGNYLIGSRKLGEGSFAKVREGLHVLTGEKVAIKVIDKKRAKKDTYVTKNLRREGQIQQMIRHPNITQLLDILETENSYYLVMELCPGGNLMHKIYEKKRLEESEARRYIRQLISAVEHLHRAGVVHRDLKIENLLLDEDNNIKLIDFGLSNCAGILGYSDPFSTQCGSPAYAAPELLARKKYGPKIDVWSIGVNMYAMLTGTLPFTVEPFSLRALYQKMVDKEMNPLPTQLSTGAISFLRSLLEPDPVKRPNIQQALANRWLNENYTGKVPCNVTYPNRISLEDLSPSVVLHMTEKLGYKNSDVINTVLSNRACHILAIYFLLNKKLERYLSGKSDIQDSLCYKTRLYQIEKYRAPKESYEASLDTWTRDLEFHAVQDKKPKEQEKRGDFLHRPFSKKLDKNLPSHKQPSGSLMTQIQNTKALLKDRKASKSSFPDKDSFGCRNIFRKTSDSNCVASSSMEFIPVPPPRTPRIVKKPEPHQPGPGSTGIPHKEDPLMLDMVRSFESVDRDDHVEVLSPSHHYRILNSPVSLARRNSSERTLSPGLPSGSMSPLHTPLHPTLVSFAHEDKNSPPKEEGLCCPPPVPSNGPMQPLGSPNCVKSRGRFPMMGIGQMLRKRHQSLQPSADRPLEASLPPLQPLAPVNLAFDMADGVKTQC
T15 sequence (Q06187 whole entry): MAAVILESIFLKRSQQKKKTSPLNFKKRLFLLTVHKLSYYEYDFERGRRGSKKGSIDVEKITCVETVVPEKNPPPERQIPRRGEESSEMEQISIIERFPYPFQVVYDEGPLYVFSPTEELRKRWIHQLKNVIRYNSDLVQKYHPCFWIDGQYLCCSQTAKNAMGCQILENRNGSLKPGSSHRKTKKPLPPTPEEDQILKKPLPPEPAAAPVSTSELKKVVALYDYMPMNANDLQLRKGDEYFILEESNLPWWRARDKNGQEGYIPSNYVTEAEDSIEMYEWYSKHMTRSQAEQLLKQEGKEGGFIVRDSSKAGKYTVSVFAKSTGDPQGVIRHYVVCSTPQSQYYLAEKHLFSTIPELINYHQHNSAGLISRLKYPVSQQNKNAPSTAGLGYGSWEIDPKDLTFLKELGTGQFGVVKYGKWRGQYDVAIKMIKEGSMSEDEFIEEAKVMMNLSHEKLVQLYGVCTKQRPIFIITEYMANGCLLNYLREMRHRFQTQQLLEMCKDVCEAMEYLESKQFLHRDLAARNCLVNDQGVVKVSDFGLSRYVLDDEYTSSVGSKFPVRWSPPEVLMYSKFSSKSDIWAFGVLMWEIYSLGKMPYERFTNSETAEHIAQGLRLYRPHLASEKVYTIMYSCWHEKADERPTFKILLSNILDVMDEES

NCCCNc1nc2c(Br)c(Br)c(Br)c(Br)c2[nH]1 [Compound 11, N-(3-aminopropyl)-4,5,6,7-tetrabromo-1H-benzo[d]imidazol-2-amine]
remaining binding at 1 µM [1]: 100% | remaining binding at 1 µM (MARK1): 100% | remaining binding at 1 µM (FLT3(D835Y)): 10% | % binding (JNK1): 100% | remaining binding at 1 µM (TAOK1): 100% | % binding (JNK3): 100% | remaining binding at 1 µM (CDK7): 27% | remaining binding at 1 µM (RET): 100% | remaining binding at 1 µM (PRKG2): 7% | remaining binding at 1 µM (HUNK): 100% | remaining binding at 1 µM (ROS1): 100% | remaining binding at 1 µM (TSSK1B): 100% | % binding (p38-alpha): 100% | remaining binding at 1 µM (ERBB3): 68% | remaining binding at 1 µM (FLT4): 94% | remaining binding at 1 µM (PIK3C2B): 96% | remaining binding at 1 µM (LIMK1): 96% | % binding (BTK): 85% | % binding (MAP4K3): 85% | remaining binding at 1 µM (HIPK2): 0.8% | remaining binding at 1 µM (ERK3): 75% | remaining binding at 1 µM (PCTK1): 100% | remaining binding at 1 µM [2]: 64% | remaining binding at 1 µM (YSK1): 100% | remaining binding at 1 µM [3]: 100% | remaining binding at 1 µM (p38-gamma): 76% | remaining binding at 1 µM (FES): 100% | % binding (ULK3): 100% | remaining binding at 1 µM (TNK1): 90% | remaining binding at 1 µM (EPHA4): 100% | % binding (CSNK1G2): 100% | % binding (CDK2): 71% | remaining binding at 1 µM (DYRK1B): 7.4% | remaining binding at 1 µM (PAK6): 99%
